Legend:
[1] = test system: PD-1 positive (transduced) KG-1 cells; assay: IFN gamma secretion assay in PD-1 transduced KG-1 cells (Example 11); format: cell-based, human; settings: ratio of EC50 in PD-1 positive and parental KG-1 cells
Description: The KG-1 cell line was used to generate a PD-1 expressing cell line and furthermore, to measure IFNγ release upon incubation with TL-18 variants and corresponding TL-18 immunocytokines.
PD-1 expressing cell line generation: Briefly, KG-1 cells were transduced using lentiviral particles carrying the human PD-1 gene (PDCD1 NM_005018; Origene, CAT #: RC210364L3V) at a MOI (Multiplicity of Infection) of 30. Spinfection was performed at 1260 g during 90 min at 37° C. in the presence of 5 μg/ml of Polybrene and 10 mM of HEPES in complete culture media (RPMI, 10% FBS, 1% L-Glutamine). Five days after transduction, puromycin at a final concentration of 1 μg/ml was added to select for PD-1 positive cells. For culture maintenance, puromycin concentration was decreased to 0.5 μg/ml. Stable and homogenous expression of PD-1 was verified by surface staining (BD Pharmingen, #557860).
IFNγ release was assessed in PD-1 positive (transduced) KG-1 cells, as well as in the parental PD-1 negative cells. 0.5×10^5 cells were seeded into a 96-well U-bottom plate in culture media (RPMI, 10% FBS, […]) and stimulated with IL-18 variants/ICs for 20-24 h. The test items were diluted to 100 nM in culture medium, followed by 7 10-fold serial dilutions. The lowest concentration assessed was […]. After incubation, IFNγ release was measured using the LEGENDplex custom human mix and match KIT (Biolegend LEGENDplex™ Human IFN-γ Capture Bead B5, 13×#740942, LEGENDplex™ P 1 Essential Immune Response Panel Detection Abs, #740931, LEGENDplex™ Buffer Set A #740368). To this end, cell culture supernatant was collected and diluted 1:1 with Assay Buffer. Fluorescence measurements were done with a Quanteon Flow Cytometer from Acea Biosciences. For analysis, MFI values (median fluorescence intensity) were exported and plotted against concentrations used. The EC50 values (half maximal effective concentration) were calculated based on a variable slope and four parameter analysis using GraphPad PRISM software version 9.

[2] = target: T1, human IL-18 binding protein isoform a (IL-18BPa) (Homo sapiens, UniProt O95998); assay: Cellular IL-18 Binding protein resistance assay in NK-92 cells (Example 13); format: cell-based; settings: NK92 cells, IL-18 analyte 1 nM final, IL-18BPa titrated, 1 ng/ml IL-12; read-out: IC50 IL-18BP-mediated inhibition of IFNγ secretion
T1 sequence (O95998 31-194): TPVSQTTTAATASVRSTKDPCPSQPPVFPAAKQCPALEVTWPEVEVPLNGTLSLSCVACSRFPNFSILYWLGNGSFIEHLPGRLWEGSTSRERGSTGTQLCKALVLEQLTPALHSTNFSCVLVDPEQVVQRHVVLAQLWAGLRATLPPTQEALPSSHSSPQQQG
Description: The NK cell line NK-92 derived from a patient with lymphoma (ATCC, Cat #CRL-2407) was cultured in aMEM medium supplemented with 20% FCS-Glutamax, 25 μM B-mercaptoEthanol, and 100 IU/ml of recombinant Human Interleukin-2 (TL-2). On the day of experiment, cells were harvested and washed with aMEM medium without IL-2. After counting, cells were seeded at 100 000 cells/well in a 384 well titer plate and incubated at 37° C./5% CO2. Sixteen 2-fold serial dilutions of Fc fused human IL-18 binding protein isoform a (IL-18BPa; R&D systems, Cat #119-BP) were prepared in aMEM medium-1 ng/ml IL-12 containing 2 nM of each IL-18 variants and were added to the NK-92 cells. Final IL-18 analytes concentration was 1 nM and final IL-18BPa concentrations ranged from to 566 nM down to 17 pM.
After 16-20 h incubation at 37° C./5% CO2, 5 μl of supernatant were carefully transferred to a 384 microwells OPTIplate (Perkin Elmer; Cat #6007270) and Interferon-gamma (IFNγ) levels measured using the Human IFNγ AlphaLISA Assay Kit (Perkin Elmer, Cat #AL217C). Briefly, 10 μl of 2.5× AlphaLISA Anti-IFNγ acceptor beads and biotinylated Antibody Anti-IFNγ mix were added to the 5 μl of NK-92 supernatants and incubated for 1 h at room temperature under shaking. Under subdued light, 2.5 μl of 2× streptavidin (SA) donor beads were pipetted in each well and incubated for 30 min at room temperature under shaking. AlphaLisa signal was then measured on an Enspire plate reader (Perkin Elmer) using 680 and 615 nm as excitation and emission wavelengths respectively. Half maximal inhibitory concentration (IC50) was calculated based on a variable slope, four parameter analysis using GraphPad PRISM software.

IC50 [2] | Substance | PD-1^pos/PD-1^neg EC50 ratio [1]
0.781 nM | SEQ ID NO: 1: native IL-18 wild-type sequence [reference compound] | 1.298
0.282 nM | SEQ ID NO: 31: IL-18 polypeptide: C38A, C76A, C127A | 1.2

— patent US12383631B2, “Immune antigen specific IL-18 immunocytokines and uses thereof” (Bright Peak Therapeutics AG, priority 2022, dated 2025)
